In the supplement of paper PMC10307832:

Tests used:
Test in all cases: relative viability (nuclei count vs DMSO), 5 days (fraction); higher = more cells survive
[1] = compound: C1COCCN1C2=NC(=NC3=C2OC4=C3C=CC=N4)C5=CC(=CC=C5)NC(=O)C6=CN=C(C=C6)N + CS(=O)(=O)N1CCN(Cc2cc3nc(-c4cccc5[nH]ncc45)nc(N4CCOCC4)c3s2)CC1 [Pictilisib] (partner 1 µM)
Procedure, shortened: (§1)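 A single step with final 0.05% Triton X-100, 1% formaldehyde and 1 ug/ml Hoechst fixed the cells and stained nuclei 5 days after treatment. Lung cancer cell lines in 1536-well plates had been treated by pin tool the day after seeding with one drug alone or a fixed anchor-drug dose plus five library-drug doses (not always all listed) in √10 steps, and nuclei were counted on 4× images. Relative viability is the ratio of nuclei in treated wells to nuclei in vehicle wells, taken as the median of duplicate plates.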

Entinostat + Crizotinib = compound: Nc1ccccc1NC(=O)c1ccc(CNC(=O)OCc2cccnc2)cc1 [Entinostat] + C[C@@H](Oc1cc(-c2cnn(C3CCNCC3)c2)cnc1N)c1c(Cl)ccc(F)c1Cl [Crizotinib] (partner 1 µM)
Procedure, shortened: as §1

SGI-1776 + Phenformin = compound: CN1CCC(CNc2ccc3ncc(-c4cccc(OC(F)(F)F)c4)n3n2)CC1 [SGI-1776] + N=C(N)NC(=N)NCCc1ccccc1 [Phenformin] (partner 250 µM)
Procedure, shortened: as §1

SGI-1776 + Olaparib = compound: CN1CCC(CNc2ccc3ncc(-c4cccc(OC(F)(F)F)c4)n3n2)CC1 [SGI-1776] + O=C(c1cc(Cc2n[nH]c(=O)c3ccccc23)ccc1F)N1CCN(C(=O)C2CC2)CC1 [Olaparib] (partner 8 µM)
Procedure, shortened: as §1

Row | Cell Line | relative viability ([1]; first compound 0.06325 µM) | relative viability ([1]; first compound 0.2 µM) | relative viability ([1]; first compound 0.6325 µM) | relative viability ([1]; first compound 2 µM) | relative viability (Entinostat + Crizotinib; first compound 0.02 µM) | relative viability (Entinostat + Crizotinib; first compound 0.06325 µM) | relative viability (Entinostat + Crizotinib; first compound 0.2 µM) | relative viability (Entinostat + Crizotinib; first compound 0.6325 µM) | relative viability (Entinostat + Crizotinib; first compound 2 µM) | relative viability (SGI-1776 + Phenformin; first compound 0.08 µM) | relative viability (SGI-1776 + Phenformin; first compound 0.8 µM) | relative viability (SGI-1776 + Phenformin; first compound 2.53 µM) | relative viability (SGI-1776 + Phenformin; first compound 8 µM) | relative viability (SGI-1776 + Olaparib; first compound 0.08 µM) | relative viability (SGI-1776 + Olaparib; first compound 0.8 µM) | relative viability (SGI-1776 + Olaparib; first compound 2.53 µM) | relative viability (SGI-1776 + Olaparib; first compound 8 µM) | relative viability ([1]; first compound 0.02 µM)
1 | LCLC-97TM1 | 0.173 | 0.217 | 0.235 | 0.184 | 0.285 | 0.435 | 0.303 | 0.273 | 0.151 | 0.487 | 0.434 | 0.465 | 0.456 | 0.421 | 0.421 | 0.419 | 0.439 | 
2 | LCLC-103H | 0.647 | 0.555 | 0.678 | 0.551 | 0.968 | 1.03 | 0.992 | 0.801 | 0.631 | 0.371 | 0.325 | 0.323 | 0.281 | 0.781 | 0.776 | 0.716 | 0.7 | 0.533
3 | LK-2 | 0.444 | 0.621 | 0.477 | 0.612 | 0.252 | 0.234 | 0.227 | 0.255 | 0.248 | 0.396 | 0.515 | 0.428 | 0.168 | 0.783 | 0.768 | 0.717 | 0.579 | 0.64
4 | LOU-NH91 | 0.531 | 0.51 | 0.521 | 0.512 | 0.705 | 0.754 | 0.757 | 0.742 | 0.678 | 0.754 | 0.733 | 0.716 | 0.565 | 0.968 | 0.986 | 0.957 | 0.773 | 0.48
5 | LU99A | 0.344 | 0.308 | 0.321 | 0.267 | 0.537 | 0.592 | 0.565 | 0.38 | 0.267 | 0.816 | 0.712 | 0.915 | 0.783 | 0.304 | 0.312 | 0.305 | 0.238 | 0.361
6 | LXF-289 | 0.861 | 0.703 | 0.758 | 0.602 | 0.789 | 0.806 | 0.788 | 0.669 | 0.331 | 0.54 | 0.534 | 0.496 | 0.486 | 0.966 | 1.12 | 1.1 | 1.03 | 0.782
7 | NCI-H23 | 0.504 | 0.409 | 0.432 | 0.32 | 0.5 | 0.545 | 0.407 | 0.39 | 0.166 | 0.77 | 0.702 | 0.752 | 0.72 | 0.32 | 0.331 | 0.299 | 0.332 | 0.473
8 | NCI-H322M | 0.542 | 0.474 | 0.585 | 0.484 | 1.03 | 0.961 | 0.98 | 0.809 | 0.651 | 0.875 | 0.846 | 0.786 | 0.552 | 0.871 | 0.772 | 0.812 | 0.697 | 0.508
9 | NCI-H358 | 0.302 | 0.288 | 0.328 | 0.296 | 0.545 | 0.519 | 0.463 | 0.209 | 0.0928 | 0.325 | 0.34 | 0.313 | 0.214 | 0.648 | 0.605 | 0.569 | 0.403 | 0.287
10 | NCI-H441 | 0.585 | 0.427 | 0.447 | 0.345 | 0.715 | 0.744 | 0.523 | 0.215 | 0.181 | 0.759 | 0.769 | 0.82 | 0.663 | 0.569 | 0.521 | 0.608 | 0.491 | 0.564
11 | NCI-H460 | 0.384 | 0.255 | 0.355 | 0.294 | 0.907 | 0.945 | 0.522 | 0.0251 | 0.0158 | 0.502 | 0.471 | 0.477 | 0.361 | 0.503 | 0.482 | 0.431 | 0.481 | 0.411
12 | NCI-H520 | 0.327 | 0.274 | 0.293 | 0.179 | 0.735 | 0.613 | 0.779 | 0.413 | 0.251 | 0.687 | 0.597 | 0.53 | 0.316 | 0.36 | 0.318 | 0.386 | 0.203 | 0.302
13 | NCI-H596 | 0.386 | 0.374 | 0.315 | 0.407 | 1 | 0.982 | 0.992 | 0.978 | 0.52 | 0.724 | 0.688 | 0.701 | 0.704 | 0.662 | 1 | 0.82 | 0.696 | 0.356
14 | NCI-H647 | 0.483 | 0.418 | 0.353 | 0.339 | 1.1 | 0.966 | 0.749 | 0.301 | 0.102 | 0.499 | 0.499 | 0.47 | 0.151 | 0.67 | 0.484 | 0.438 | 0.206 | 0.465
15 | NCI-H650 | 0.947 | 0.861 | 0.77 | 0.741 | 0.673 | 0.564 | 0.586 | 0.473 | 0.222 | 0.521 | 0.438 | 0.435 | 0.368 | 0.455 | 0.409 | 0.438 | 0.326 | 0.948
16 | NCI-H661 | 0.395 | 0.392 | 0.375 | 0.163 | 0.907 | 0.909 | 1.01 | 0.834 | 0.633 | 0.269 | 0.271 | 0.306 | 0.246 | 0.733 | 0.754 | 0.843 | 0.846 | 0.441
17 | NCI-H727 | 0.335 | 0.342 | 0.412 | 0.285 | 0.765 | 0.731 | 0.693 | 0.628 | 0.342 | 0.525 | 0.577 | 0.552 | 0.498 | 0.69 | 0.639 | 0.659 | 0.679 | 0.298
18 | NCI-H838 | 0.446 | 0.45 | 0.362 | 0.311 | 0.995 | 0.818 | 0.949 | 0.536 | 0.229 | 0.622 | 0.633 | 0.52 | 0.335 | 0.776 | 0.754 | 0.695 | 0.56 | 0.481
19 | NCI-H1355 | 0.424 | 0.413 | 0.423 | 0.459 | 1.06 | 1.01 | 0.9 | 0.743 | 0.599 | 0.451 | 0.423 | 0.401 | 0.3 | 0.749 | 0.695 | 0.78 | 0.687 | 0.336
20 | NCI-H1437 | 0.483 | 0.41 | 0.362 | 0.337 | 0.801 | 0.641 | 0.469 | 0.174 | 0.109 | 0.322 | 0.259 | 0.296 | 0.297 | 0.65 | 0.618 | 0.6 | 0.552 | 0.357
21 | NCI-H1650 | 0.588 | 0.526 | 0.592 | 0.483 | 0.923 | 0.928 | 0.988 | 0.729 | 0.359 | 0.441 | 0.368 | 0.248 | 0.129 | 0.8 | 0.946 | 0.734 | 0.607 | 0.505
22 | NCI-H1651 | 0.608 | 0.68 | 0.567 | 0.31 | 0.877 | 0.9 | 0.878 | 0.807 | 0.721 | 0.386 | 0.396 | 0.311 | 0.251 | 0.205 | 0.187 | 0.18 | 0.174 | 0.621
23 | NCI-H1666 | 0.38 | 0.404 | 0.311 | 0.41 | 0.973 | 1.16 | 0.843 | 0.404 | 0.321 | 0.615 | 0.544 | 0.527 | 0.502 | 0.794 | 0.782 | 0.838 | 0.729 | 0.466
24 | NCI-H1734 | 0.494 | 0.429 | 0.443 | 0.355 | 0.622 | 0.709 | 0.894 | 0.555 | 0.423 | 0.41 | 0.366 | 0.394 | 0.284 | 0.69 | 0.691 | 0.715 | 0.567 | 0.466
25 | NCI-H1755 | 0.494 | 0.377 | 0.405 | 0.357 | 0.832 | 0.827 | 0.771 | 0.462 | 0.347 | 0.617 | 0.584 | 0.576 | 0.516 | 0.913 | 0.848 | 0.798 | 0.671 | 0.481
26 | NCI-H1792 | 0.27 | 0.258 | 0.17 | 0.288 | 0.979 | 1.04 | 0.86 | 0.796 | 0.569 | 0.335 | 0.257 | 0.135 | 0.257 | 0.623 | 0.533 | 0.429 | 0.453 | 0.26
27 | NCI-H1915 | 0.96 | 0.927 | 0.898 | 0.845 | 0.854 | 0.869 | 0.862 | 0.739 | 0.328 | 0.37 | 0.368 | 0.382 | 0.357 | 0.256 | 0.265 | 0.248 | 0.23 | 0.924
28 | NCI-H1944 | 0.365 | 0.356 | 0.37 | 0.316 | 0.971 | 0.756 | 0.629 | 0.344 | 0.249 | 0.186 | 0.188 | 0.189 | 0.164 | 0.411 | 0.406 | 0.422 | 0.354 | 0.358
29 | NCI-H1975 | 0.309 | 0.278 | 0.273 | 0.257 | 0.762 | 0.778 | 0.564 | 0.278 | 0.201 | 0.426 | 0.41 | 0.403 | 0.379 | 0.877 | 0.791 | 0.73 | 0.638 | 0.276
